Data reported in ChEMBL document CHEMBL4420078, “Sos1 inhibitors for cancer treatment” (2016).
The source made the active and inactive calls. The calls are words filed in the database; no cut-off is given here.

Tests used:
MIA PaCa-2 [1] = assay: Effect on total ERK protein levels in overnight serum-starved human MIAPaCa2 cells at 20 to 40 uM by Western blotting analysis; type: ADME, cell-based; conditions: mia paca-2, 40 µM
MIA PaCa-2 [2] = assay: Effect on total MEK protein levels in overnight serum-starved human MIAPaCa2 cells at 20 to 40 uM by Western blotting analysis; type: ADME, cell-based; conditions: mia paca-2, 40 µM
MIA PaCa-2 [3] = assay: Effect on total AKT protein levels in overnight serum-starved human MIAPaCa2 cells at 20 to 40 uM by Western blotting analysis; type: ADME, cell-based; conditions: mia paca-2, 40 µM
MIA PaCa-2 [4] = assay: Effect on total EGFR protein levels in overnight serum-starved human MIAPaCa2 cells at 20 to 40 uM by Western blotting analysis; type: ADME, cell-based; conditions: mia paca-2, 40 µM
[5] = target: T1, Son of sevenless homolog 1 (Homo sapiens) (UniProt Q07889); assay: Inhibition of N-terminal 6x-His-tagged recombinant human SOS1 catalytic domain (residues 564 to 1049 residues) expressed in Escherichia coli BL21 (DE3) assessed as reduction in 50 nM SOS1-mediated GDP/GTP nucleotide exchange upon 2 uM N-terminal-GST-tagged H-Ras (1 to 166 residues) at 10 uM by BODIPY-FL-GDP dissociation assay
T1 sequence (whole entry): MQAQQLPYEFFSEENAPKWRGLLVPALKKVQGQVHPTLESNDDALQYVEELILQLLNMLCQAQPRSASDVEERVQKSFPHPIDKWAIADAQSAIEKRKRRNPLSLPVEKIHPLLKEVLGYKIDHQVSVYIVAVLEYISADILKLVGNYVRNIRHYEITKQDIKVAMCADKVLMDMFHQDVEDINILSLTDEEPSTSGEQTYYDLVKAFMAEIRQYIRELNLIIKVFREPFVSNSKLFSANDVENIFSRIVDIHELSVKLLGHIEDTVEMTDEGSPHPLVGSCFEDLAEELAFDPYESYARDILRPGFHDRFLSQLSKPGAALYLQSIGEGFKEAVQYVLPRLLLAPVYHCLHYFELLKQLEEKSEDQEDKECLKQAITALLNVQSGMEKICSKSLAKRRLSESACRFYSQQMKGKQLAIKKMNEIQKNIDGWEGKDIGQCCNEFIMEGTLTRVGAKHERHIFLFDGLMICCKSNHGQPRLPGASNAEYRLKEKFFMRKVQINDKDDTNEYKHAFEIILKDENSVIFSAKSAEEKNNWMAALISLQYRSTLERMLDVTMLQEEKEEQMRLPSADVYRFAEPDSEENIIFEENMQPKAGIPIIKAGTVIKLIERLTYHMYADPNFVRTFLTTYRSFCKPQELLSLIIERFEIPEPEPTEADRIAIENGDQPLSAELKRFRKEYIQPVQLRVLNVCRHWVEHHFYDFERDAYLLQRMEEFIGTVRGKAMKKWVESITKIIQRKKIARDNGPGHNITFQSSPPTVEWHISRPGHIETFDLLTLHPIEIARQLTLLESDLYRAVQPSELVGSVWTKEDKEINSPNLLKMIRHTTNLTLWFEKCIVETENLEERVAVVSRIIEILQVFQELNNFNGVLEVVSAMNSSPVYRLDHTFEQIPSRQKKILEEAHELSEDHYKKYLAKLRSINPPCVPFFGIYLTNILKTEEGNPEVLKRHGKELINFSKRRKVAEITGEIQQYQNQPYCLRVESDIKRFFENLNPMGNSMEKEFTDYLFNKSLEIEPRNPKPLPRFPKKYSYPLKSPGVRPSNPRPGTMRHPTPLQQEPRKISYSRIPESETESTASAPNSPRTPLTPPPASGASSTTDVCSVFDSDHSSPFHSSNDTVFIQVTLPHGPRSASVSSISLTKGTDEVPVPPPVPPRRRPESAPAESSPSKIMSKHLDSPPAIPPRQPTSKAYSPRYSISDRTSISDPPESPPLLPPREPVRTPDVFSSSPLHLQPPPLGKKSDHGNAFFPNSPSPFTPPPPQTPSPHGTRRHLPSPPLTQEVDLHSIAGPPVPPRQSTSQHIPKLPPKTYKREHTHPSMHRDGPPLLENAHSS

[6] = target: T2, Son of sevenless homolog 1 (Mus musculus) (UniProt Q62245); assay: Inhibition of SOS1 in overnight serum-starved mouse NIH/3T3 cells assessed as reduction in ERK1/2 phosphorylation at 20 to 100 uM pre-incubated for 2 hrs before EGF stimulation for 5 mins by Western blot analysis
T2 sequence (whole entry): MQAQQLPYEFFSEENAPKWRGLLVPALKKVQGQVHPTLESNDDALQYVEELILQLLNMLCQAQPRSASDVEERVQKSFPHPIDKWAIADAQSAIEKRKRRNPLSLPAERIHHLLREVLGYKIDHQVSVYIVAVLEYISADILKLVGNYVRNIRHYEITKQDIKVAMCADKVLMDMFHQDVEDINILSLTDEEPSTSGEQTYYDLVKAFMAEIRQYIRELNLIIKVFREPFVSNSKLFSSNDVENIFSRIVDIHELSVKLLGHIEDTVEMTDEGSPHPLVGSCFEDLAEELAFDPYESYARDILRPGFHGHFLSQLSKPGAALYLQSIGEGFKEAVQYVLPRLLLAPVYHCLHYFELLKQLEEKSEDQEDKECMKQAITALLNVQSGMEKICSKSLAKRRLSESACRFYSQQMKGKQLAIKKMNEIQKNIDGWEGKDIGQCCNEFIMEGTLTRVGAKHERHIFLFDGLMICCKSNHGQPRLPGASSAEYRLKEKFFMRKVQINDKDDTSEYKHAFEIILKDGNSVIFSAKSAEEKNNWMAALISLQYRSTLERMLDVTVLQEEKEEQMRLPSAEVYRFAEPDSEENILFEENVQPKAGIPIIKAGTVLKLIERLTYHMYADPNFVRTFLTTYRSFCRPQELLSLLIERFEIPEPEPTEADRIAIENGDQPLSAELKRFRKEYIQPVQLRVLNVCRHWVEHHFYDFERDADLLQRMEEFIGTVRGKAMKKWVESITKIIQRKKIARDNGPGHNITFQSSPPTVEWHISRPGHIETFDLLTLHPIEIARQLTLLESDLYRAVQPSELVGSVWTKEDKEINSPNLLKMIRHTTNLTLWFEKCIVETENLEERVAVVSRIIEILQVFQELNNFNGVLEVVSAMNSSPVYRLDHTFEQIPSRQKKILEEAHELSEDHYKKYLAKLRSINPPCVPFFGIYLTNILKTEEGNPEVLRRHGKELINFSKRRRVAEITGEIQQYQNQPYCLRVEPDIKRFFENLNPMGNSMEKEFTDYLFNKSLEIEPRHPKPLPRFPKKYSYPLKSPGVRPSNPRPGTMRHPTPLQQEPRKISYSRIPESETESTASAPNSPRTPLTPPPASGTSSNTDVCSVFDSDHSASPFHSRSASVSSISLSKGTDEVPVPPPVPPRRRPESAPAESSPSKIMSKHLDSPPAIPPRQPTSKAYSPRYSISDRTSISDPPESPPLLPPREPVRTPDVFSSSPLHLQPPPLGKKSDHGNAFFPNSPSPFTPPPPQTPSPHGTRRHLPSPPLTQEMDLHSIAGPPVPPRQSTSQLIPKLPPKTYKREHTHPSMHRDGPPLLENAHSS

O=[N+]([O-])c1ccccc1/C=C/C=C1c2ccccc2-c2ccccc21
Activity (MIA PaCa-2 [1]): Non-Toxic
Activity (MIA PaCa-2 [2]): Non-Toxic
Activity (MIA PaCa-2 [3]): Non-Toxic
Activity (MIA PaCa-2 [4]): Non-Toxic

O=C(O)c1ccccc1-c1c2ccc3cc(O)ccc3c2oc2c1ccc1cc(=O)ccc12
inhibition [5]: Active

O=C1Oc2ccccc2C(=O)/C1=C/N1C(=O)/C(=C/c2ccc([N+](=O)[O-])cc2)SC1=S
inhibition [6]: Active
